*1 amine or outer side, *2 acyl side, *3 side chain or, on linkers, in order; H or OH if unused. Where a SMILES comes first, the peptide text is derived from it. Bridges are numbered along the chain shown (N, C = ends). [ ]: non-standard residue; d: D form. Phe(4-guanidino) = N=C(N)Nc1ccc(C[C@H](N)C(=O)O)cc1; X22 = CNC(=N)N(C)CCC[C@@H](C(=O)[*:2])N(C)[*:1]; Ala(pyrimidin-5-yl) = N[C@@H](Cc1cncnc1)C(=O)O; X29 = CC(=O)N(C)CCC[C@@H](C(=O)[*:2])N(C)[*:1]; NMe3Pal(5-F) = CN[C@@H](Cc1cncc(F)c1)C(=O)O; NMePhe(4-Me) = CN[C@@H](Cc1ccc(C)cc1)C(=O)O; Phe(4-CH2NH2) = NCc1ccc(C[C@H](N)C(=O)O)cc1; X7 = C[C@H](N[*:1])C12CC(C(=O)[*:2])(C1)C2; X25 = O=C([C@H](Cc1ccc(F)nc1)N[*:1])[*:2]; X5 = O=C([C@H](Cc1c(F)ccnc1F)N[*:1])[*:2]; X24 = O=C([C@H](Cc1ccncc1Cl)N[*:1])[*:2]; Nle(5,5-F2) = CC(F)(F)CC[C@H](N)C(=O)O; 1Nal = N[C@@H](Cc1cccc2ccccc12)C(=O)O; X35 = CN([C@@H](CCCF)C(=O)[*:2])[*:1]; Phe(2-F) = N[C@@H](Cc1ccccc1F)C(=O)O; X70 = O=C(C1CC2(C1)CN([*:1])C2)[*:2]; Abu(4,4-F2) = N[C@@H](CC(F)F)C(=O)O; NMe3Pal = CN[C@@H](Cc1cccnc1)C(=O)O; X1 = O=C(C12CC(CN[*:1])(C1)C2)[*:2]; NMeLys(Me) = CNCCCC[C@H](NC)C(=O)O; X41 = COCCC[C@H](N[*:1])C(=O)[*:2]; Ala(cPr) = N[C@@H](CC1CC1)C(=O)O; NMeF = CN[C@@H](Cc1ccccc1)C(=O)O; PhLac = O=C(O)[C@@H](O)Cc1ccccc1; 3Pal = N[C@@H](Cc1cccnc1)C(=O)O; 3Thi = N[C@@H](Cc1ccsc1)C(=O)O; d(αMeC) = C[C@@](N)(CS)C(=O)O; Ahp(2) = CCCCC[C@H](N)C(=O)O; Cba = N[C@@H](CC1CCC1)C(=O)O; hLeu = CC(C)CC[C@H](N)C(=O)O; αMeC = C[C@](N)(CS)C(=O)O; NMeA = CN[C@@H](C)C(=O)O; Nle = CCCC[C@H](N)C(=O)O; Pra = C#CC[C@H](N)C(=O)O; AEEA = NCCOCCOCC(=O)O
Target: KRAS-G12D protein (Homo sapiens, UniProt P01116, G12D)
Assay: SOS-mediated nucleotide exchange assay (BODIPY-GDP / Tb-streptavidin TR-FRET)
Format: biochemical

Sequence of KRAS-G12D protein (P01116 1-188 isoform P01116-2 G12D): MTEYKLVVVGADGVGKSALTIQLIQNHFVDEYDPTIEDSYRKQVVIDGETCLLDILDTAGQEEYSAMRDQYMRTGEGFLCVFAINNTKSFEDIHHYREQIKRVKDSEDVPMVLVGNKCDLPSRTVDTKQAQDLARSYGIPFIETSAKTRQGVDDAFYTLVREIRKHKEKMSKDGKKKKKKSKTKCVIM

| SMILES | EC50 |
| --- | --- |
| CCCC[C@@H]1NC(=O)[C@H](Cc2cccnc2)NC(=O)[C@H](C)N(C)C(=O)[C@H](Cc2ccccc2)OC(=O)C23CC(CNC(=O)[C@H](Cc4cccnc4)N(C)C(=O)[C@H](CCC(C)C)NC(=O)[C@H](Cc4ccccc4F)NC1=O)(C2)C3 [compound 124, cyclo(FLac-NMeA-3Pal-Nle-Phe2F-hL-NMe3Pal-amBCP)] (cyclo([3Pal][Nle][Phe(2-F)][hLeu][NMe3Pal][X1][PhLac][NMeA])) | 2.17 nM |
| CCCC[C@@H]1NC(=O)[C@H](Cc2cncnc2)NC(=O)[C@H](C)N(C)C(=O)[C@H](Cc2ccccc2)OC(=O)C23CC(CNC(=O)[C@H](Cc4ccc(C)cc4)N(C)C(=O)[C@H](CCCC)NC(=O)[C@H](Cc4ccccc4F)NC1=O)(C2)C3 [compound 171, cyclo(FLac-NMeA-PyrimAla-Nle-Phe2F-Nle-NMePhe4Me-amBCP)] (cyclo([NMeA][Ala(pyrimidin-5-yl)][Nle][Phe(2-F)][Nle][NMePhe(4-Me)][X1][PhLac])) | 19.1 nM |
| CC(C)CC[C@@H]1NC(=O)[C@H](Cc2ccccc2F)NC(=O)[C@H](CC2CC2)NC(=O)[C@H](Cc2cncnc2)NC(=O)[C@H](CCCF)N(C)C(=O)[C@H](Cc2ccccc2)OC(=O)C23CC(CNC(=O)[C@H](Cc4ccccc4)N(C)C1=O)(C2)C3 [compound 216, cyclo(FLac-NMeNvaF-PyrimAla-cPrA-Phe2F-hL-NMeF-amBCP)] (cyclo([Ala(cPr)][Phe(2-F)][hLeu][NMeF][X1][PhLac][X35][Ala(pyrimidin-5-yl)])) | 26 nM |
| CCCC[C@@H]1NC(=O)[C@H](Cc2ccc(F)nc2)NC(=O)[C@H](C)N(C)C(=O)[C@H](Cc2ccccc2)OC(=O)C23CC(CNC(=O)[C@H](Cc4cccnc4)N(C)C(=O)[C@H](CCCC)NC(=O)[C@H](Cc4ccccc4F)NC1=O)(C2)C3 [compound 235, cyclo(FLac-NMeA-4F3Pal-Nle-Phe2F-Nle-NMe3Pal-amBCP)] (cyclo([NMe3Pal][X1][PhLac][NMeA][X25][Nle][Phe(2-F)][Nle])) | 18.7 nM |
| CCCCC[C@@H]1NC(=O)[C@H](Cc2ccc(O)cc2)NC(=O)[C@H](CC(C)C)NC(=O)[C@H](Cc2ccc(O)cc2)NC(=O)[C@H](CCCNC(=N)N)NC(=O)[C@H](Cc2ccccc2)NC(=O)CSC[C@@H](C(=O)NCCOCCOCC(N)=O)NC(=O)[C@H](Cc2ccccc2)N(C)C1=O [compound 57, cyclo(F-R-Y-L-Y-Ahp-NMeF-C3-ClAc)] ({CH2CO}-FRYLY[Ahp(2)][NMeF]C[AEEA]-NH2; thioether N-8) | 482 nM |
| CCCC[C@@H]1NC(=O)[C@H](Cc2ccc(OC)cc2)NC(=O)[C@H](CC2CCC2)NC(=O)[C@H](Cc2cccnc2)NC(=O)[C@H](CCCNC(=N)N)NC(=O)[C@H](Cc2ccccc2)NC(=O)C2CC3(C2)CN(C3)C(=O)[C@H](Cc2ccccc2)N(C)C1=O [compound 102, cyclo(F-R-3Pal-cBuA-TyrOMe-Nlc-NMeF-spiro44)] (cyclo(FR[3Pal][Cba]Y(Me)[Nle][NMeF][X70])) | 7340 nM |
| CCCC[C@@H]1NC(=O)[C@H](Cc2cncnc2)NC(=O)[C@H](C)N(C)C(=O)[C@H](Cc2ccccc2)OC(=O)C23CC(C2)(C3)[C@H](C)NC(=O)[C@H](Cc2cccnc2)N(C)C(=O)[C@H](CCCC)NC(=O)[C@H](Cc2ccccc2F)NC1=O [compound 121, cyclo(FLac-NMeA-PyrimAla-Nle-Phe2F-Nle-NMe3Pal-SMeamBCP)] (cyclo([NMe3Pal][X7][PhLac][NMeA][Ala(pyrimidin-5-yl)][Nle][Phe(2-F)][Nle])) | 33.5 nM |
| CCCC[C@@H]1NC(=O)[C@H](Cc2cccnc2)NC(=O)[C@H](CCCN(C)C(=N)NC)N(C)C(=O)[C@H](Cc2ccccc2)OC(=O)CSC[C@@](C)(C(N)=O)NC(=O)[C@H](Cc2cccnc2)N(C)C(=O)[C@H](CCCC)NC(=O)[C@H](Cc2ccccc2F)NC1=O [compound 396, cyclo(FLac-NMeArg1MeMe-3Pal-Nle-Phe2F-Nle-NMe3Pal-aMeCl-ClAc)] ({CH2CO}-[PhLac][X22][3Pal][Nle][Phe(2-F)][Nle][NMe3Pal][αMeC]-NH2; thioether N-8) | 1.8 nM |
| C[C@H]1C(=O)N[C@@H](Cc2cncnc2)C(=O)N[C@@H](CC2CC2)C(=O)N[C@@H](Cc2ccccc2F)C(=O)N[C@@H](CCC(C)(F)F)C(=O)N(C)[C@@H](Cc2ccccc2)C(=O)NCC23CC(C2)(C3)C(=O)O[C@@H](Cc2ccccc2)C(=O)N1C [compound 276, cyclo(FLac-NMeA-PyrimAla-cPrA-Phe2F-Nle3F2-NMeF-amBCP)] (cyclo([Ala(cPr)][Phe(2-F)][Nle(5,5-F2)][NMeF][X1][PhLac][NMeA][Ala(pyrimidin-5-yl)])) | 1 nM |
| CCCC[C@@H]1NC(=O)[C@H](CCCOC)NC(=O)[C@H](CC2CCC2)NC(=O)[C@H](Cc2cccnc2)NC(=O)[C@H](CCCNC(=N)N)NC(=O)[C@H](Cc2ccccc2)NC(=O)CSC[C@@](C)(C(N)=O)NC(=O)[C@H](Cc2ccccc2)N(C)C1=O [compound 55, cyclo(F-R-3Pal-cBuA-NvaOMe-Nle-NMeF-aMeCl-ClAc)] ({CH2CO}-FR[3Pal][Cba][X41][Nle][NMeF][αMeC]-NH2; thioether N-8) | 4410 nM |
| CON=C1C[C@@H](Cc2ccccc2)C(=O)N(C)[C@@H](C)C(=O)N[C@@H](Cc2cncnc2)C(=O)N[C@@H](CC2CC2)C(=O)N[C@@H](Cc2ccccc2F)C(=O)N[C@@H](CCC(C)(F)F)C(=O)N(C)[C@@H](Cc2ccccc2)C(=O)NCC23CC1(C2)C3 (single isomer, unassigned) [compound 177, cyclo(CPhe-NMeA-PyrimAla-cPrA-Phe2F-Nle3F2-NMeF-MeOximamBCP)] | 51 nM |
| CCCC[C@@H]1NC(=O)[C@H](Cc2ccsc2)NC(=O)[C@H](C)N(C)C(=O)[C@H](Cc2ccccc2)OC(=O)C23CC(CNC(=O)[C@H](Cc4ccccc4)N(C)C(=O)[C@H](CCCC)NC(=O)[C@H](Cc4ccccc4F)NC1=O)(C2)C3 [compound 318, cyclo(FLac-NMeA-3Thi-Nle-Phe2F-Nle-NMeF-amBCP)] (cyclo([3Thi][Nle][Phe(2-F)][Nle][NMeF][X1][PhLac][NMeA])) | 527 nM |
| CCCC[C@@H]1NC(=O)[C@H](Cc2ccc(CNC(C)=O)cc2)NC(=O)[C@H](CCCNC(=N)N)NC(=O)[C@H](Cc2cccc3ccccc23)NC(=O)CSC[C@](C)(C(=O)O)NC(=O)[C@H](Cc2ccccc2)N(C)C(=O)[C@H](CCCC)NC(=O)[C@H](Cc2ccc(O)cc2)NC1=O [compound 145, cyclo(INal-R-Phe4CH2NHAc-Nle-Y-Nle-NMeF-daMeC-ClAc)] ({CH2CO}-[1Nal]R[Phe(4-CH2NH2)](Ac)[Nle]Y[Nle][NMeF][d(αMeC)]-OH; thioether N-8) | 7030 nM |
| CCCC[C@@H]1NC(=O)[C@H](Cc2cccnc2)NC(=O)[C@H](CCCN(C)C(C)=O)N(C)C(=O)[C@H](Cc2ccccc2)OC(=O)C23CC(CNC(=O)[C@H](Cc4cccnc4)N(C)C(=O)[C@H](CCCC)NC(=O)[C@H](Cc4ccccc4F)NC1=O)(C2)C3 [compound 405, cyclo(FLac-NMeOrnAc-3Pal-Nle-Phe2F-Nle-NMe3Pal-amBCP)] (cyclo([3Pal][Nle][Phe(2-F)][Nle][NMe3Pal][X1][PhLac][X29])) | 50 nM |
| CC(C)CC[C@@H]1NC(=O)[C@H](Cc2c(F)ccnc2F)NC(=O)[C@H](CC2CC2)NC(=O)[C@H](Cc2cncnc2)NC(=O)[C@H](C)N(C)C(=O)[C@H](Cc2ccccc2)OC(=O)C23CC(CNC(=O)[C@H](Cc4ccccc4)N(C)C1=O)(C2)C3 [compound 295, cyclo(FLac-NMeA-PyrimAla-cPrA-3Pal26F2-hL-NMeF-amBCP)] (cyclo([Ala(cPr)][X5][hLeu][NMeF][X1][PhLac][NMeA][Ala(pyrimidin-5-yl)])) | 63 nM |
| CC(C)CC[C@@H]1NC(=O)[C@H](Cc2ccccc2F)NC(=O)[C@H](CC2CC2)NC(=O)[C@H](Cc2cncnc2)NC(=O)[C@H](C)N(C)C(=O)[C@H](Cc2ccccc2)OC(=O)C23CC(CNC(=O)[C@H](Cc4cncc(F)c4)N(C)C1=O)(C2)C3 [compound 282, cyclo(FLac-NMeA-PyrimAla-cPrA-Phe2F-hL-NMe3Pal5F-amBCP)] (cyclo([Ala(cPr)][Phe(2-F)][hLeu][NMe3Pal(5-F)][X1][PhLac][NMeA][Ala(pyrimidin-5-yl)])) | 2 nM |
| CCCC[C@@H]1NC(=O)[C@H](Cc2cccnc2)NC(=O)[C@H](CCCNC(=N)N)NC(=O)[C@H](Cc2ccccc2)OC(=O)C23CC(CNC(=O)[C@H](Cc4ccccc4)N(C)C(=O)[C@H](CCCC)NC(=O)[C@H](Cc4ccccc4F)NC1=O)(C2)C3 [compound 212, cyclo(FLac-R-3Pal-Nle-Phe2F-Nle-NMeF-amBCP)] (cyclo([PhLac]R[3Pal][Nle][Phe(2-F)][Nle][NMeF][X1])) | 20.7 nM |
| C#CC[C@@H]1NC(=O)[C@H](CC2CCC2)NC(=O)[C@H](Cc2cccnc2)NC(=O)[C@H](CCCNC(=N)N)NC(=O)[C@H](Cc2ccccc2)NC(=O)CSC[C@@](C)(C(N)=O)NC(=O)[C@H](Cc2ccccc2)N(C)C(=O)[C@H](CCCC)NC1=O [compound 51, cyclo(F-R-3Pal-cBuA-Pra-Nle-NMeF-aMeCl-ClAc)] ({CH2CO}-FR[3Pal][Cba][Pra][Nle][NMeF][αMeC]-NH2; thioether N-8) | 298 nM |
| CC(C)CC[C@@H]1NC(=O)[C@H](Cc2ccccc2F)NC(=O)[C@H](CC(F)F)NC(=O)[C@H](Cc2cncnc2)NC(=O)[C@H](C)N(C)C(=O)[C@H](Cc2ccccc2)OC(=O)C23CC(CNC(=O)[C@H](Cc4ccccc4)N(C)C1=O)(C2)C3 [compound 304, cyclo(FLac-NMeA-PyrimAla-AbuF2-Phe2F-hL-NMeF-amBCP)] (cyclo([NMeA][Ala(pyrimidin-5-yl)][Abu(4,4-F2)][Phe(2-F)][hLeu][NMeF][X1][PhLac])) | 17.2 nM |
| CCCCC[C@@H]1NC(=O)[C@H](Cc2ccc(OC)cc2)NC(=O)[C@H](CC2CCC2)NC(=O)[C@H](Cc2ccc(NC(=N)N)cc2)NC(=O)[C@H](CCCCNC)N(C)C(=O)[C@H](Cc2ccccc2)NC(=O)CSC[C@@](C)(C(N)=O)NC(=O)[C@H](Cc2ccccc2)N(C)C1=O [compound 360, cyclo(F-NMeLysMe-Phe4Gn-cBuA-TyrOMe-Ahp-NMeF-aMeCl-ClAc)] ({CH2CO}-F[NMeLys(Me)][Phe(4-guanidino)][Cba]Y(Me)[Ahp(2)][NMeF][αMeC]-NH2; thioether N-8) | 291 nM |
| CC(C)CC[C@@H]1NC(=O)[C@H](Cc2ccncc2Cl)NC(=O)[C@H](CC2CC2)NC(=O)[C@H](Cc2cncnc2)NC(=O)[C@H](C)N(C)C(=O)[C@H](Cc2ccccc2)OC(=O)C23CC(CNC(=O)[C@H](Cc4ccccc4)N(C)C1=O)(C2)C3 [compound 298, cyclo(FLac-NMeA-PyrimAla-cPrA-4Pal2Cl-hL-NMeF-amBCP)] (cyclo([Ala(cPr)][X24][hLeu][NMeF][X1][PhLac][NMeA][Ala(pyrimidin-5-yl)])) | 11 nM |

From patent US20260001914A1, “MACROCYCLIC PEPTIDES TARGETING KRAS” (Merck Sharp & Dohme LLC, priority 2022, published 2026)
